Data taken from article PMC12203613 (Journal of Agricultural and Food Chemistry, 2025).

Assays:
Assay type in all cases: biochemical
[1] = biological target: T1, AtHPPD (4-hydroxyphenylpyruvate dioxygenase) (Arabidopsis thaliana, UniProt P93836); assay: X-ray co-crystal structure at […] Å
T1 sequence (P93836 1-445): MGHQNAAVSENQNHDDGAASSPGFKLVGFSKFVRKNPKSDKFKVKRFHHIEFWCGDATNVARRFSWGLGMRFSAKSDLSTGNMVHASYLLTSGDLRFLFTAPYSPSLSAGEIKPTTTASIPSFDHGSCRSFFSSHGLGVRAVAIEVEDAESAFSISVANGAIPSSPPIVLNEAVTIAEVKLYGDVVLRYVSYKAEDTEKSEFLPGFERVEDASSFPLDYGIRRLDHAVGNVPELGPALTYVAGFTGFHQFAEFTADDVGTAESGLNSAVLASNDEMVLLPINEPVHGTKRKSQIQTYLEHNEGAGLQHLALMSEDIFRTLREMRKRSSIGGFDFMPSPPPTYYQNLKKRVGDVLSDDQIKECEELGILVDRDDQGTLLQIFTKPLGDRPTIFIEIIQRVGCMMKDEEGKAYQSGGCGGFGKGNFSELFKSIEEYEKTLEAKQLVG

[2] = biological target: T2, OsHPPD (4-hydroxyphenylpyruvate dioxygenase) (Oryza sativa, UniProt Q6H4V1); assay: X-ray co-crystal structure at […] Å
T2 sequence (Q6H4V1 2-446): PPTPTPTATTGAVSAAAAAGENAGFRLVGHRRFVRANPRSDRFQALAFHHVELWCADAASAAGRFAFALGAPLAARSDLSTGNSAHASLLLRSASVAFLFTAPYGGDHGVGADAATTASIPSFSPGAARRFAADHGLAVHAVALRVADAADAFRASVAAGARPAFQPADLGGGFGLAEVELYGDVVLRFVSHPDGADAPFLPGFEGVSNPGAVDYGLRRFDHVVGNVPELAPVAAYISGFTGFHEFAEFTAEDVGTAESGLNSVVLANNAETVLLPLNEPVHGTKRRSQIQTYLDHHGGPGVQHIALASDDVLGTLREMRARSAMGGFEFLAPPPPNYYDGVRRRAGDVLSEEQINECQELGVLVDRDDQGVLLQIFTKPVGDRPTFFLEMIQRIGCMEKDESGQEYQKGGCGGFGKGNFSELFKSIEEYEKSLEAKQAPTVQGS

[3] = biological target: T1, AtHPPD (4-hydroxyphenylpyruvate dioxygenase); assay: coupled enzyme assay
[4] = biological target: T2, OsHPPD (4-hydroxyphenylpyruvate dioxygenase); assay: coupled enzyme assay

Structure (SMILES) | Ki [1] [nM] | Ki [2] [nM] | Ki [3] [nM] | Ki [4] [nM]
Cc1nnc(NC(=O)c2ccc(C(F)(F)F)n3c(CS(=O)(=O)C(C)C)nnc23)o1 [iptriazopyrid, 3-[(isopropylsulfonyl)-methyl]-N-(5-methyl-1,3,4-oxadiazol-2-yl)-5-(trifluoromethyl)-[1,2,4]-triazolo[4,3-a]-pyridine-8-carboxamide] | 24.3 ± 0.3 | 33.3 ± 3.3 |  | 
CS(=O)(=O)c1ccc(C(=O)C2C(=O)CCCC2=O)c([N+](=O)[O-])c1 [mesotrione] |  |  | 22.1 ± 4.5 | 26.5 ± 10.8
